According to patent publication EP0319644A2, “Alkylated amide derivatives, their use and pharmaceutical compositions containing them” (THE GREEN CROSS CORPORATION, priority 1987, dated 1989):

What was measured:
[1] = tested on: water immersed restraint stress ulcerization; assay: Rat water immersed restraint stress ulcerization (Test Example 1); type: in vivo, male Wistar rats; details: dose 5 mg/kg orally 90 minutes before stress loading; for Ulcer Index (Mean ± S.B.): 7 hours immersion at 22 ± 1 °C, suspended in saline containing 10% HCO-60, sum of ulcer lengths per rat; for Inhibition rate (%): versus untreated control
Experimental: Each test compound was suspended in physiological saline containing 10% polyoxyethylene cured caster oil (HCO-60: manufactured by Nikko Chemicals), and was then tested.
(§1) The test was conducted according to the method of rat water immersed restraint stress ulcerization proposed by Okabe et al. (Jpn. J. Pharmacol., 18, 9, (1968)). That is, male Wistar rats weighing 230 to 250 g were fasted for 24 hours, put in a stress cage in the erect position, and were immersed in a thermostatic water tank at 22 ± 1 °C up to the sternal process. The rats were sacrificed 7 hours later, and the stomach was removed. The pylorus was ligated and 10 ml of physiological saline was infused into the stomach. The cardia also was ligated and dipped in 1% formalin for 5 to 10 minutes. Afterwards, the stomach was opened along the greater curvature, and any blood deposited on the mucosa in the glandular portion was wiped off gently. The length of the remaining ulcers (erosions) was measured. The sum (mm) of the length of the ulcers in each rat was defined as the ulcer index. The test material was administered orally 90 minutes before stress loading (dose: 5 mg/kg).

[2] = tested on: water immersed restraint stress ulcerization; assay: Rat water immersed restraint stress ulcerization, gum arabic preparation (Test Example 2); type: in vivo, Male Wister rats; details: for Ulcer Index (Mean ± S.B.) / Inhibition rate (%): dose 25 mg/kg orally, preparation with 5% gum arabic (2 ml/kg); for Ulcer Index (Mean ± S.B.): rats fasted overnight; for Inhibition rate (%): versus control; for antiulcer activity: summary in words of Table 2, no significant difference between the two compounds
Experimental: as §1
Male Wister rats weighing 200 to 220 g were fasted overnight and the preparation containing Compound 2 (S-(2-cyclohexylethyl)-N-(2-decenoyl) cysteamine) and 5% gum arabic or the preparation containing the S-oxide derivarive of Compound 2 (S-(2-cyclohexylethyl)-N-(2-decenoyl) cysteamine S-oxide) and 5% gum arabic was orally administered to each rat (2 ml/kg).
Antiulcer activity of each test compound was evaluated in the same manner as in Test Example 1.

Row | Structure (SMILES) | Ulcer Index (Mean ± S.B.) [1] [mm] | Inhibition rate (%) [1] [%] | Ulcer Index (Mean ± S.B.) [2] [mm] | Inhibition rate (%) [2] [%] | antiulcer activity [2]
1 | CCCCCCCC=CC(=O)NCCSCCC1CCCCC1 [Compound 2, S-(cyclohexylethyl)-N-(2-decenoyl) cysteamine] | 6.7 ± 1.7 | 69.5 | 10.0 ± 1.5 | 58.0 | excellent antiulcer activity
2 | CCCCCCC/C=C/C(=O)NCCSCC1CCCCN1C (stereo not drawn) [Compound 8, N-(2-decenoyl)-S-[(1-methylpiperidyl)methyl] cysteamine] | 8.0 ± 1.7 | 63.6 | – | – | –
3 | CCCCCCCC=CC(=O)NCC[S+]([O-])CCC1CCCCC1 (stereo not drawn) [S-oxide of Compound 2, S-(2-cyclohexylethyl)-N-(2-decenoyl) cysteamine S-oxide] | – | – | 12.8 ± 1.9 | 46.2 | excellent antiulcer activity
